We go through 25 molecules from patent US12459922B2 (Gilead Sciences, Inc., priority 2022, dated 2025).

The assay relates to endogenous cellular STAT1 (phosphorylated at Tyr701) in NCI-H1373 cells. Briefly: Phospho-STAT1 (Tyr701) LANCE Ultra TR-FRET Detection Assay. In kind it is cell-based. The note with it: phospho-STAT1 (Tyr701) induction, read-out: NH1373 pSTAT1 EC50. (In TR-FRET formats the signal depends on donor and acceptor labels being close together.)

The structures appear in SMILES notation. Where two headings read alike, the source gives them in different places.

For `Nc1nc(-c2cc3ccn(CC[C@H]4CCC[C@@H]4Nc4cn[nH]c(=O)c4C(F)(F)F)c(=O)c3cc2F)ncc1C(F)(F)F` [Example 178, 6-(4-amino-5-(trifluoromethyl)pyrimidin-2-yl)-7-fluoro-2-(2-((1R,2S)-2-((6-oxo-5-(trifluoromethyl)-1,6-dihydropyridazin-4-yl)amino)cyclopentyl)ethyl)isoquinolin-1(2H)-one], where the note is “Homo sapiens, NCI-H1373, 48 h”, the half-maximal effective concentration (EC50) came to 1.8 nM.

As to `Cc1ccc(-c2cc3ccn(CCC[C@H](COC(F)F)Nc4cn[nH]c(=O)c4C(F)(F)F)c(=O)c3cc2F)nc1N` [Example 412, (R)-6-(6-amino-5-methylpyridin-2-yl)-2-(5-(difluoromethoxy)-4-((6-oxo-5-(trifluoromethyl)-1,6-dihydropyridazin-4-yl)amino)pentyl)-7-fluoroisoquinolin-1(2H)-one], under “Homo sapiens, NCI-H1373, 48 h”, the EC50 amounted to 17.4 nM.

`Nc1nc(-c2cc3ncn(CCC[C@H](COC(F)F)Nc4cn[nH]c(=O)c4C(F)(F)F)c(=O)c3cc2F)cnc1C(F)(F)F` [Example 419, (R)-7-(6-amino-5-(trifluoromethyl)pyrazin-2-yl)-3-(5-(difluoromethoxy)-4-((6-oxo-5-(trifluoromethyl)-1,6-dihydropyridazin-4-yl)amino)pentyl)-6-fluoroquinazolin-4(3H)-one]: the 50% effective concentration (EC50) (Homo sapiens, NCI-H1373, 48 h) came out at 14.2 nM.

For `O=c1[nH]ncc(N2C[C@@H](O)C[C@H]2CCCn2ccc3cc(-c4ncc(C(F)(F)F)cn4)c(F)cc3c2=O)c1C(F)(F)F` [Example 138, 7-fluoro-2-(3-((2R,4S)-4-hydroxy-1-(6-oxo-5-(trifluoromethyl)-1,6-dihydropyridazin-4-yl)pyrrolidin-2-yl)propyl)-6-(5-(trifluoromethyl)pyrimidin-2-yl)isoquinolin-1(2H)-one], under “Homo sapiens, NCI-H1373, 48 h”, the EC50 came out at 55.5 nM.

Consider `O=c1[nH]ncc(N[C@H](CCCn2ccc3cc(-c4cnc(C(F)F)cn4)c(F)cc3c2=O)COC(F)F)c1C(F)(F)F` [Example 424, (R)-2-(5-(difluoromethoxy)-4-((6-oxo-5-(trifluoromethyl)-1,6-dihydropyridazin-4-yl)amino)pentyl)-6-(5-(difluoromethyl)pyrazin-2-yl)-7-fluoroisoquinolin-1(2H)-one], for which the EC50 (Homo sapiens, NCI-H1373, 48 h) came to 3.11 nM.

On to `O=c1[nH]ncc(N[C@H]2CCC[C@@H]2CCn2cnc3cc(-c4ncc(C(F)(F)F)cn4)c(F)cc3c2=O)c1C(F)(F)F` [Example 463, 6-fluoro-3-(2-((1R,2S)-2-((6-oxo-5-(trifluoromethyl)-1,6-dihydropyridazin-4-yl)amino)cyclopentyl)ethyl)-7-(5-(trifluoromethyl)pyrimidin-2-yl)quinazolin-4(3H)-one], for which, for the setting “Homo sapiens, NCI-H1373, 48 h”, the EC50 is 9.47 nM.

With `C[C@@H](CCCn1ccc2cc(-c3ccc4ncsc4n3)c(F)cc2c1=O)Nc1cn[nH]c(=O)c1C(F)(F)F` [Example 333, (S)-7-fluoro-2-(4-((6-oxo-5-(trifluoromethyl)-1,6-dihydropyridazin-4-yl)amino)pentyl)-6-(thiazolo[5,4-b]pyridin-5-yl)isoquinolin-1(2H)-one], the half-maximal effective concentration (EC50) (Homo sapiens, NCI-H1373, 48 h) is 503 nM.

Consider `CC[C@@H](CCCn1ccc2cc(-c3ncc(OC(F)F)c(N)n3)c(F)c(F)c2c1=O)Nc1cn[nH]c(=O)c1C(F)(F)F` [Example 361, (S)-6-(4-amino-5-(difluoromethoxy)pyrimidin-2-yl)-7,8-difluoro-2-(4-((6-oxo-5-(trifluoromethyl)-1,6-dihydropyridazin-4-yl)amino)hexyl)isoquinolin-1(2H)-one], for which the concentration for a half-maximal effect (EC50) (Homo sapiens, NCI-H1373, 48 h) amounted to 10.9 nM.

For the molecule `Nc1nc(-c2cc3ccn(C[C@@H]4CCC[C@H](Nc5cn[nH]c(=O)c5C(F)(F)F)C4)c(=O)c3cc2F)cnc1C(F)(F)F` [Example 249, 6-(6-amino-5-(trifluoromethyl)pyrazin-2-yl)-7-fluoro-2-(((1R,3S)-3-((6-oxo-5-(trifluoromethyl)-1,6-dihydropyridazin-4-yl)amino)cyclohexyl)methyl)isoquinolin-1(2H)-one], the half-maximal effective concentration (EC50) (Homo sapiens, NCI-H1373, 48 h) came to 32.4 nM.

In the case of `C[C@@H](CCCn1ccc2cc(-c3ncc(N(C)C)cn3)c(F)cc2c1=O)Nc1cn[nH]c(=O)c1C(F)(F)F` [Example 92, (S)-6-(5-(dimethylamino)pyrimidin-2-yl)-7-fluoro-2-(4-((6-oxo-5-(trifluoromethyl)-1,6-dihydropyridazin-4-yl)amino)pentyl)isoquinolin-1(2H)-one], the concentration for a half-maximal effect (EC50) (Homo sapiens, NCI-H1373, 48 h) was determined as 11.1 nM.

As to `O=c1[nH]ncc(N[C@H]2CCC[C@@H](Cn3ccc4cc(-c5cc6c(cn5)C(F)(F)CC6)c(F)cc4c3=O)C2)c1C(F)(F)F` [Example 496, 6-(7,7-difluoro-5,6-dihydrocyclopenta[c]pyridin-3-yl)-7-fluoro-2-[[(1R,3S)-3-[[6-oxo-5-(trifluoromethyl)-1H-pyridazin-4-yl]amino]cyclohexyl]methyl]isoquinolin-1-one], for the setting “Homo sapiens, NCI-H1373, 48 h”, the concentration giving a half-maximal response (EC50) was 5.5 nM.

As to `Nc1nc(-c2cc3ccn(C[C@@H]4COC[C@H](Nc5cn[nH]c(=O)c5C(F)(F)F)C4)c(=O)c3cc2F)ncc1C(F)(F)F` [Example 230, 6-(4-amino-5-(trifluoromethyl)pyrimidin-2-yl)-7-fluoro-2-(((3R,5R)-5-((6-oxo-5-(trifluoromethyl)-1,6-dihydropyridazin-4-yl)amino)tetrahydro-2H-pyran-3-yl)methyl)isoquinolin-1(2H)-one], the EC50 (Homo sapiens, NCI-H1373, 48 h) was found to be 115 nM.

With `Cc1cc(N)nc(-c2cc3ccn(CCC[C@H](C)Nc4cn[nH]c(=O)c4C(F)(F)F)c(=O)c3cc2F)n1` [Example 315, (S)-6-(4-amino-6-methylpyrimidin-2-yl)-7-fluoro-2-(4-((6-oxo-5-(trifluoromethyl)-1,6-dihydropyridazin-4-yl)amino)pentyl)isoquinolin-1(2H)-one], for the setting “Homo sapiens, NCI-H1373, 48 h”, the EC50 was determined as 561 nM.

Regarding `Nc1nc(-c2cc3ccn(CCC[C@H](COC(F)F)Nc4cn[nH]c(=O)c4C(F)(F)F)c(=O)c3cc2F)n[nH]1` [Example 421, (R)-6-(5-amino-1H-1,2,4-triazol-3-yl)-2-(5-(difluoromethoxy)-4-((6-oxo-5-(trifluoromethyl)-1,6-dihydropyridazin-4-yl)amino)pentyl)-7-fluoroisoquinolin-1(2H)-one], the EC50 (Homo sapiens, NCI-H1373, 48 h) amounted to 110 nM.

As to `Nc1nc(-c2cc3ccn(CC[C@H]4CCCC[C@@H]4Nc4cn[nH]c(=O)c4C(F)(F)F)c(=O)c3cc2F)ncc1C(F)(F)F` [Example 451, 6-[4-amino-5-(trifluoromethyl)pyrimidin-2-yl]-7-fluoro-2-[2-[(1R,2S)-2-[[6-oxo-5-(trifluoromethyl)-1H-pyridazin-4-yl]amino]cyclohexyl]ethyl]isoquinolin-1-one], the concentration for a half-maximal effect (EC50) (Homo sapiens, NCI-H1373, 48 h) came to 4.76 nM.

Take `O=c1[nH]ncc(N[C@H](CCCn2cnc3cc(-c4nc5ccccn5n4)c(F)cc3c2=O)COC(F)F)c1C(F)(F)F` [Example 490, (R)-7-([1,2,4]triazolo[1,5-a]pyridin-2-yl)-3-(5-(difluoromethoxy)-4-((6-oxo-5-(trifluoromethyl)-1,6-dihydropyridazin-4-yl)amino)pentyl)-6-fluoroquinazolin-4(3H)-one]: the EC50 (Homo sapiens, NCI-H1373, 48 h) came to 1 nM.

As for `O=c1[nH]ncc(N[C@H](CCCn2cnc3cc(-c4ccc5c(n4)NCCO5)c(F)cc3c2=O)COC(F)F)c1C(F)(F)F` [Example 425, (R)-3-(5-(difluoromethoxy)-4-((6-oxo-5-(trifluoromethyl)-1,6-dihydropyridazin-4-yl)amino)pentyl)-7-(3,4-dihydro-2H-pyrido[3,2-b][1,4]oxazin-6-yl)-6-fluoroquinazolin-4(3H)-one], the EC50 (Homo sapiens, NCI-H1373, 48 h) came out at 9.83 nM.

As to `C[C@@H](CCCn1cnc2cc(-c3nc(N)c4ccccc4n3)c(F)cc2c1=O)Nc1cn[nH]c(=O)c1C(F)(F)F` [Example 354, (S)-4-amino-6'-fluoro-3'-(4-((6-oxo-5-(trifluoromethyl)-1,6-dihydropyridazin-4-yl)amino)pentyl)-[2,7'-biquinazolin]-4'(3'H)-one], the 50% effective concentration (EC50) (Homo sapiens, NCI-H1373, 48 h) was 65.1 nM.

As to `C[C@@H](CCCn1ccc2cc(-c3ncc(OC(F)F)c(N)n3)c(F)cc2c1=O)Nc1cn[nH]c(=O)c1C(F)(F)F` [Example 194, (S)-6-(4-amino-5-(difluoromethoxy)pyrimidin-2-yl)-7-fluoro-2-(4-((6-oxo-5-(trifluoromethyl)-1,6-dihydropyridazin-4-yl)amino)pentyl)isoquinolin-1(2H)-one], where the note is “Homo sapiens, NCI-H1373, 48 h”, the half-maximal effective concentration (EC50) is 6.6 nM.

Take `O=c1[nH]ncc(N2CC[C@H]2CCCn2ccc3cc(-c4ncc(C(F)(F)F)cn4)c(F)cc3c2=O)c1C(F)(F)F` (single isomer, unassigned) [Example 149]: the EC50 (Homo sapiens, NCI-H1373, 48 h) came to 3.98 nM.

Regarding `C[C@@H](CCCn1ccc2cc(-c3ncc(C(F)(F)F)cc3N)c(F)cc2c1=O)Nc1cn[nH]c(=O)c1C(F)(F)F` [Example 328, (S)-6-(3-amino-5-(trifluoromethyl)pyridin-2-yl)-7-fluoro-2-(4-((6-oxo-5-(trifluoromethyl)-1,6-dihydropyridazin-4-yl)amino)pentyl)isoquinolin-1(2H)-one], the concentration for a half-maximal effect (EC50) (Homo sapiens, NCI-H1373, 48 h) stood at 78.6 nM.

With `C[C@@H](C[C@@H](O)Cn1ccc2cc(-c3ncc(C(F)(F)F)cn3)c(F)cc2c1=O)Nc1cn[nH]c(=O)c1C(F)(F)F` (single isomer, unassigned) [Example 480], for the setting “Homo sapiens, NCI-H1373, 48 h”, the EC50 was found to be 4.14 nM.

`Cc1cnc(-c2cc3ccn(C[C@@H]4CCC[C@H](Nc5cn[nH]c(=O)c5C(F)(F)F)C4)c(=O)c3cc2F)nc1` [Example 240]: the half-maximal effective concentration (EC50) (48 hours) was determined as 4.35 nM.

`C[C@@H](CC(=O)Cn1ccc2cc(-c3ncc(C(F)(F)F)cn3)c(F)cc2c1=O)Nc1cn[nH]c(=O)c1C(F)(F)F` [Example 90, 7-fluoro-2-[(4S)-2-oxo-4-[[6-oxo-5-(trifluoromethyl)-1H-pyridazin-4-yl]amino]pentyl]-6-[5-(trifluoromethyl)pyrimidin-2-yl]isoquinolin-1-one]: the EC50 (Homo sapiens, NCI-H1373, 48 h) is 52 nM.

Turning to `C[C@@H](CCCn1cnc2cc(-c3ncc(C(F)F)c(N)n3)c(F)cc2c1=O)Nc1cn[nH]c(=O)c1C(F)(F)F` [Example 108, 7-[4-amino-5-(difluoromethyl)pyrimidin-2-yl]-6-fluoro-3-[(4S)-4-[[6-oxo-5-(trifluoromethyl)-1H-pyridazin-4-yl]amino]pentyl]quinazolin-4-one], the EC50 (Homo sapiens, NCI-H1373, 48 h) was found to be 29.4 nM.

Broadly, the EC50 is the concentration giving half of the maximal effect.
